The text below walks through data of US11084800B2 (Achillion Pharmaceuticals, Inc., priority 2017, dated 2021).

The experiment deals with Human Factor D (Homo sapiens (Human), UniProt P00746). Description: Human Factor D Assay. The settings on record: Table 6; Factor D 80 nM, substrate Z-L-Lys-SBz; read-out: IC50. The format is biochemical. In a few lines: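 Thioester substrate Z-L-Lys-SBz (100 μM) with Ellman's reagent DTNB (100 μM) reports activity of 80 nM human serum-derived enzyme, kinetically at 405 nm over 30 min. Compound preincubated 5 min, room temperature, pH 7.5 Tris/1 M NaCl; IC50 by nonlinear fit of rates.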
Sequence of Human Factor D (P00746 26-253): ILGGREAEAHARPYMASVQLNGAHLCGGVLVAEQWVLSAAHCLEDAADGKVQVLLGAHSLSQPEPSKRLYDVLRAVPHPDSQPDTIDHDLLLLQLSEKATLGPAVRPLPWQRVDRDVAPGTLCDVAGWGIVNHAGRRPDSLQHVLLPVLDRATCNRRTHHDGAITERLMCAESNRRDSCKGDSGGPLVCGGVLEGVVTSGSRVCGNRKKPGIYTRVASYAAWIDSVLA
Usually IC50 stands for the concentration at which inhibition is half-maximal. As to `CCNC[C@@]12C[C@@H](C(=O)Nc3nc(Br)ccc3C)N(C(=O)Cn3nc(C(C)=O)c4cc(-c5cnc(C)nc5)cc(C)c43)[C@@H]1C2` [Compound 132, (1R,3S,5R)-2-(2-(3-Acetyl-7-methyl-5-(2-methylpyrimidin-5-yl)-1H-indazol-1-yl)acetyl)-N-(6-bromo-3-methylpyridin-2-yl)-5-((ethylamino)methyl)-2-azabicyclo[3.1.0]hexane-3-carboxamide], the IC50 is < 1000 nM.
In the case of `CC(=O)c1nn(CC(=O)N2[C@H](C(=O)Nc3nc(Br)ccc3C)C[C@@]3(C)C[C@@H]23)c2c(C(F)(F)F)cc(-c3cnc(C)nc3)cc12` [Compound 133, (1R,3S,5R)-2-(2-(3-Acetyl-5-(2-methylpyrimidin-5-yl)-7-(trifluoromethyl)-1H-indazol-1-yl)acetyl)-N-(6-bromo-3-methylpyridin-2-yl)-5-methyl-2-azabicyclo[3.1.0]hexane-3-carboxamide] it was < 1000 nM.
In the case of `C=CCOCc1ccc(Br)nc1NC(=O)[C@@H]1C[C@@]2(C=C)C[C@H]2N1C(=O)Cn1nc(C(C)=O)c2cc(-c3cnc(C)nc3)ccc21` [Compound 134, (1R,3S,5R)-2-(2-(3-Acetyl-5-(2-methylpyrimidin-5-yl)-1H-indazol-1-yl)acetyl)-N-(3-((allyloxy)methyl)-6-bromopyridin-2-yl)-5-vinyl-2-azabicyclo[3.1.0]hexane-3-carboxamide] it was < 1000 nM; in that of `CC(=O)c1nn(CC(=O)N2[C@H](C(=O)Nc3nc(Cl)ccc3CN(C)C)C[C@@]3(C)C[C@@H]23)c2ccc(-c3cnc(C)nc3)cc12` [Compound 135, (1R,3S,5R)-2-(2-(3-Acetyl-5-(2-methylpyrimidin-5-yl)-1H-indazol-1-yl)acetyl)-N-(6-chloro-3-((dimethylamino)methyl)pyridin-2-yl)-5-methyl-2-azabicyclo[3.1.0]hexane-3-carboxamide], < 1000 nM; in that of `CC(=O)c1nn(CC(=O)N2[C@H](C(=O)Nc3nc(Br)ccc3CN(C)C)C[C@@]3(C)C[C@@H]23)c2c(C)cc(-c3cnc(C)nc3)cc12` [Compound 136, (1R,3S,5R)-2-(2-(3-Acetyl-7-methyl-5-(2-methylpyrimidin-5-yl)-1H-indazol-1-yl)acetyl)-N-(6-bromo-3-((dimethylamino)methyl)pyridin-2-yl)-5-methyl-2-azabicyclo[3.1.0]hexane-3-carboxamide], < 1000 nM.
The result for `CC(=O)c1nn(CC(=O)N2[C@H](C(=O)Nc3nc(Cl)ccc3CN(C)C)C[C@@]3(C)C[C@@H]23)c2c(C)cc(-c3cnc(C)nc3)cc12` [Compound 137, (1R,3S,5R)-2-(2-(3-Acetyl-7-methyl-5-(2-methylpyrimidin-5-yl)-1H-indazol-1-yl)acetyl)-N-(6-chloro-3-((dimethylamino)methyl)pyridin-2-yl)-5-methyl-2-azabicyclo[3.1.0]hexane-3-carboxamide] reads < 1000 nM; that for `CC(=O)c1nn(CC(=O)N2[C@H](C(=O)Nc3nc(Br)ccc3CN3CCOCC3)C[C@@]3(C)C[C@@H]23)c2ccc(-c3cnc(C)nc3)cc12` [Compound 138, (1R,3S,5R)-2-(2-(3-Acetyl-5-(2-methylpyrimidin-5-yl)-1H-indazol-1-yl)acetyl)-N-(6-bromo-3-(morpholinomethyl)pyridin-2-yl)-5-methyl-2-azabicyclo[3.1.0]hexane-3-carboxamide], < 1000 nM.
Regarding `CC(=O)c1nn(CC(=O)N2[C@H](C(=O)Nc3nc(Cl)ccc3CN3CCOCC3)C[C@@]3(C)C[C@@H]23)c2ccc(-c3cnc(C)nc3)cc12` [Compound 139, (1R,3S,5R)-2-(2-(3-Acetyl-5-(2-methylpyrimidin-5-yl)-1H-indazol-1-yl)acetyl)-N-(6-chloro-3-(morpholinomethyl)pyridin-2-yl)-5-methyl-2-azabicyclo[3.1.0]hexane-3-carboxamide], the IC50 was < 1000 nM.
In the case of `Cc1ncc(-c2cc(C)c3c(c2)c(C(C)O)nn3CC(=O)N2[C@H](C(=O)Nc3nc(Br)ccc3C)C[C@@]3(C)C[C@@H]23)cn1` (stereo partly drawn) [Compound 140] it was < 1000 nM; in that of `CC(=O)c1nn(CC(=O)N2C[C@H]3C[C@H]3[C@H]2C(=O)Nc2nc(Br)ccc2C)c2cnc(-c3cnc(C)nc3)cc12` [Compound 141, (1R,2S,5S)-3-(2-(3-Acetyl-5-(2-methylpyrimidin-5-yl)-1H-pyrazolo[3,4-c]pyridin-1-yl)acetyl)-N-(6-bromo-3-methylpyridin-2-yl)-3-azabicyclo[3.1.0]hexane-2-carboxamide], < 1000 nM; in that of `CC(=O)c1nn(CC(=O)N2[C@H](C(=O)Nc3nc(Br)ccc3C)C[C@@]3(CN4CC5(CCCC5)C4)C[C@@H]23)c2ccc(-c3cnc(C)nc3)cc12` [Compound 142, (1R,3S,5R)-5-(2-Azaspiro[3.4]octan-2-ylmethyl)-2-(2-(3-acetyl-5-(2-methylpyrimidin-5-yl)-1H-indazol-1-yl)acetyl)-N-(6-bromo-3-methylpyridin-2-yl)-2-azabicyclo[3.1.0]hexane-3-carboxamide], < 1000 nM.
As to `CC(=O)c1nn(CC(=O)N2[C@H](C(=O)Nc3nc(Br)ccc3C)C[C@@]3(CN(C)C)C[C@@H]23)c2c(C#N)cc(-c3cnc(C)nc3)cc12` [Compound 143, (1R,3S,5R)-2-(2-(3-Acetyl-7-cyano-5-(2-methylpyrimidin-5-yl)-1H-indazol-1-yl)acetyl)-N-(6-bromo-3-methylpyridin-2-yl)-5-((dimethylamino)methyl)-2-azabicyclo[3.1.0]hexane-3-carboxamide], the IC50 is < 1000 nM.
With `CC(=O)c1nn(CC(=O)N2[C@H]3C[C@@]3(CN(C)C)C[C@H]2C(=O)Nc2nc(Br)ccc2C)c2c(C#N)cc(-c3cnc(C)nc3)cc12` [Compound 144, (1S,3S)-2-(2-(3-acetyl-7-cyano-5-(2-methylpyrimidin-5-yl)-1H-indazol-1-yl)acetyl)-N-(6-bromo-3-methylpyridin-2-yl)-5-((dimethylamino)methyl)-2-azabicyclo[3.1.0]hexane-3-carboxamide], the IC50 fell in the range of 1000 to 10000 nM.
In the case of `Cc1ncc(-c2ccc3c(c(C(N)=O)nn3CC(=O)N3[C@H](C(=O)Nc4nc(Br)ccc4C)C[C@@]4(C)C[C@@H]34)c2F)cn1` [Compound 145, 1-(2-((1R,3S,5R)-3-((6-Bromo-3-methylpyridin-2-yl)carbamoyl)-5-methyl-2-azabicyclo[3.1.0]hexan-2-yl)-2-oxoethyl)-4-fluoro-5-(2-methylpyrimidin-5-yl)-1H-indazole-3-carboxamide] it was < 1000 nM; in that of `CC(=O)c1nn(CC(=O)N2[C@H](C(=O)Nc3nc(Br)ccc3C)C[C@@]3(C)C[C@@H]23)c2c(C(F)F)cc(-c3cnc(C)nc3)cc12` [Compound 146, (1R,3S,5R)-2-(2-(3-Acetyl-7-(difluoromethyl)-5-(2-methylpyrimidin-5-yl)-1H-indazol-1-yl)acetyl)-N-(6-bromo-3-methylpyridin-2-yl)-5-methyl-2-azabicyclo[3.1.0]hexane-3-carboxamide], < 1000 nM.
With `CC(=O)c1nn(CC(=O)N2[C@H](C(=O)Nc3nc(Br)ccc3C)C[C@@]3(C)C[C@@H]23)c2c(F)cc(-c3cnc(C)nc3)cc12` [Compound 147, (1R,3S,5R)-2-(2-(3-Acetyl-7-fluoro-5-(2-methylpyrimidin-5-yl)-1H-indazol-1-yl)acetyl)-N-(6-bromo-3-methylpyridin-2-yl)-5-methyl-2-azabicyclo[3.1.0]hexane-3-carboxamide], the IC50 was < 1000 nM.
The result for `CC(=O)c1nn(CC(=O)N2[C@H](C(=O)Nc3nc(Br)ccc3C)C[C@@]3(C)C[C@@H]23)c2ccc(-c3cnc(CC(=O)N(C)C)nc3)cc12` [Compound 148, (1R,3S,5R)-2-(2-(3-Acetyl-5-(2-(2-(dimethylamino)-2-oxoethyl)pyrimidin-5-yl)-1H-indazol-1-yl)acetyl)-N-(6-bromo-3-methylpyridin-2-yl)-5-methyl-2-azabicyclo[3.1.0]hexane-3-carboxamide] reads < 1000 nM; that for `CC(=O)c1nn(CC(=O)N2[C@H](C(=O)Nc3nc(Br)ccc3C)C[C@@]3(CN4CCC4)C[C@@H]23)c2c(C)cc(-c3cnc(C)nc3)cc12` [Compound 149, (1R,3S,5R)-2-(2-(3-Acetyl-7-methyl-5-(2-methylpyrimidin-5-yl)-1H-indazol-1-yl)acetyl)-5-(azetidin-1-ylmethyl)-N-(6-bromo-3-methylpyridin-2-yl)-2-azabicyclo[3.1.0]hexane-3-carboxamide], < 1000 nM; that for `CC(=O)c1nn(CC(=O)N2[C@H](C(=O)Nc3nc(Br)ccc3C)C[C@@]3(CN4CC(F)(F)C4)C[C@@H]23)c2c(C)cc(-c3cnc(C)nc3)cc12` [Compound 150, (1R,3S,5R)-2-(2-(3-Acetyl-7-methyl-5-(2-methylpyrimidin-5-yl)-1H-indazol-1-yl)acetyl)-N-(6-bromo-3-methylpyridin-2-yl)-5-((3,3-difluoroazetidin-1-yl)methyl)-2-azabicyclo[3.1.0]hexane-3-carboxamide], < 1000 nM.
As to `CC(=O)c1nn(CC(=O)N2[C@H](C(=O)Nc3nc(Br)ccc3C)C[C@@]3(CNC4CC4)C[C@@H]23)c2ccc(-c3cnc(C)nc3)cc12` [Compound 151, (1R,3S,5R)-2-(2-(3-Acetyl-5-(2-methylpyrimidin-5-yl)-1H-indazol-1-yl)acetyl)-N-(6-bromo-3-methylpyridin-2-yl)-5-((cyclopropylamino)methyl)-2-azabicyclo[3.1.0]hexane-3-carboxamide], the IC50 was < 1000 nM.
Turning to `COCc1ccc(Br)nc1NC(=O)[C@@H]1C[C@@]2(COC)C[C@H]2N1C(=O)Cn1nc(C(C)=O)c2cc(-c3cnc(C)nc3)ccc21` [Compound 152, (1R,3S,5S)-2-(2-(3-Acetyl-5-(2-methylpyrimidin-5-yl)-1H-indazol-1-yl)acetyl)-N-(6-bromo-3-(methoxymethyl)pyridin-2-yl)-5-(methoxymethyl)-2-azabicyclo[3.1.0]hexane-3-carboxamide], the IC50 was < 1000 nM.
